Laboratory results as given in ChEMBL document CHEMBL1155069, “Beta-ketophosphonates as beta-lactamase inhibitors: Intramolecular cooperativity between the hydrophobic subsites of a class D beta-lactamase” (Bioorg Med Chem, 2008).

How the values were obtained:
[1] = Inhibition of Enterobacter cloacae P99 class C beta-lactamase by spectrophotometry
[2] = Inhibition of Escherichia coli TEM2 class A beta-lactamase by spectrophotometry
[3] = Inhibition of Escherichia coli OXA1 class D beta-lactamase by spectrophotometry
[4] = Inhibition of Escherichia coli OXA10 class D beta-lactamase by spectrophotometry

Compound | Ki [1] [µM] | Ki [2] [µM] | Ki [3] [µM] | Ki [4] [µM]
O=C(CP(=O)(O)Oc1ccccc1)c1ccc(-c2ccccc2)cc1 | 100 | 920 | 140 | –
O=C(CP(=O)(O)Oc1ccccc1)c1c(F)c(F)c(F)c(F)c1F [SODIUM PHENYL PENTAFLUOROPHENACYLPHOSPHONATE] | 350 | 475 | 380 | > 1000
Cc1onc(-c2ccccc2Cl)c1C(=O)CP(=O)(O)OCc1ccccc1 | > 1000 | > 1000 | 430 | –
O=C(CP(=O)(O)OCc1ccc(-c2ccccc2)cc1)c1ccccc1 | – | – | 200 | > 1000
O=C(CP(=O)(O)OCc1ccccc1)c1ccc2[nH]c(=O)oc2c1 | 70 | 1500 | 270 | –
O=C(CP(=O)(O)Oc1ccccc1)c1ccccc1 [SODIUM PHENYL PHENACYLPHOSPHONATE] | 200 | – | 1050 | > 1000

The next lines start with results.

Ki [1] [µM] | Compound | Ki [2] [µM] | Ki [3] [µM] | Ki [4] [µM]
24 | O=C(CP(=O)(O)OCc1ccccc1)c1nc2ccccc2s1 | 3600 | 170 | –
1080 | O=P(O)(CC(O)c1ccccc1)OCc1ccccc1 (racemic) | > 1000 | 440 | –
190 | O=C(CP(=O)(O)OCc1ccccc1)c1ccc(-c2ccccc2)cc1 | > 1000 | 230 | > 1000
74 | O=C(CP(=O)(O)OCc1ccc(-c2ccccc2)cc1)c1ccc(-c2ccccc2)cc1 | – | 6 | 200
260 | O=P(O)(CC(O)c1ccc(-c2ccccc2)cc1)OCc1ccccc1 (racemic) | > 1000 | 300 | –
670 | O=C(CP(=O)(O)OCc1ccccc1)c1ccccc1 [SODIUM BENZYL PHENACYLPHOSPHONATE] | 150 | 640 | > 1000
